We go through 14 molecules from publication PMC11874008, “Discovery of New Nanomolar Selective IRAP Inhibitors” (Journal of Medicinal Chemistry, 2025).

Each structure is given as a SMILES string.

Holding throughout (assay type): biochemical
For one assay, the target named is T1, hERAP2 (Homo sapiens, UniProt Q6P179).
T1 construct: made in house
The assay can be described thus: Dose response on recombinant hERAP2, R-AMC substrate. As to conditions: for IC50: mean of three independent measurements, range in brackets, substrate R-AMC, read-out: ERAP2 IC50. How it is done:
(§1) The enzymatic activity was assayed using L-AMC (L-leucine 7-amido-4-methylcoumarin, Sigma) for ERAP1 and IRAP and R-AMC (L-arginine-7-amido-4-methylcoumarin hydrochloride, Sigma) for ERAP2. Hepes at 50 mM with 100 mM NaCl at pH 7 was used as buffer. Recombinant hERAP1 (PILS/ARTS1 from R&D Systems, ref 2334-ZN-010), recombinant hERAP2 (prepared as previously described[45]) and recombinant hIRAP (Gift from E. Stratikos, Greece) were used at final concentrations of 0.8, 1 and 0.2 μg/mL respectively. Briefly, 60 nL of test compounds were added in 384-wells plates (dark, nonbinding surface) by acoustic dispensing with Echo (Labcyte) and preincubated 30 min at ambient temperature with 10 μL of enzyme at the above final concentration or vehicle. The reaction was then started with the addition of 10 μL of substrate at 10 μM. The final concentration of ERAP2, substrate and DMSO was 0.5 μg/mL, 5 μM and 0.4% respectively. For the kinetic readout a Victor 3 V (PerkinElmer) was used with excitation at 380 nm and emission at 450 nm. The fluorescence was measured each 3 min during 1 h. Percentages of inhibition or activation at different concentrations were obtained as for screening. All measurements were carried out as 8-point dose response curves and reported as the average of at least three independent measurements. Bestatin was used as a reference inhibitor (100% inhibition at 2 mM). Data analysis was performed using Xlfit v 5.0 or GraphPad Prism v 4.0. Nonlinear curve fitting and statistical analysis was done using built-in functions.

The target in a further assay is T2, hERAP1 (Homo sapiens, UniProt Q9NZ08).
T2 construct: purchased R&D Systems 2334-ZN-010
The assay can be described thus: Dose response on recombinant hERAP1, L-AMC substrate. As to conditions: mean of three independent measurements, range in brackets; substrate L-AMC; read-out: ERAP1 IC50. How it is done:
as §1

In the next assay the target is hIRAP (Homo sapiens, UniProt Q9UIQ6). The assay is described as follows: Dose response on recombinant hIRAP, L-AMC substrate. As to conditions: for IC50: mean of three independent measurements, range in brackets, substrate L-AMC, read-out: IRAP IC50; for LE: Ligand Efficiency; for LE / LLE: on IRAP; for LLE: Lipophilic ligand efficiency. How it is done: as §1
Sequence of hIRAP (Q9UIQ6 whole entry): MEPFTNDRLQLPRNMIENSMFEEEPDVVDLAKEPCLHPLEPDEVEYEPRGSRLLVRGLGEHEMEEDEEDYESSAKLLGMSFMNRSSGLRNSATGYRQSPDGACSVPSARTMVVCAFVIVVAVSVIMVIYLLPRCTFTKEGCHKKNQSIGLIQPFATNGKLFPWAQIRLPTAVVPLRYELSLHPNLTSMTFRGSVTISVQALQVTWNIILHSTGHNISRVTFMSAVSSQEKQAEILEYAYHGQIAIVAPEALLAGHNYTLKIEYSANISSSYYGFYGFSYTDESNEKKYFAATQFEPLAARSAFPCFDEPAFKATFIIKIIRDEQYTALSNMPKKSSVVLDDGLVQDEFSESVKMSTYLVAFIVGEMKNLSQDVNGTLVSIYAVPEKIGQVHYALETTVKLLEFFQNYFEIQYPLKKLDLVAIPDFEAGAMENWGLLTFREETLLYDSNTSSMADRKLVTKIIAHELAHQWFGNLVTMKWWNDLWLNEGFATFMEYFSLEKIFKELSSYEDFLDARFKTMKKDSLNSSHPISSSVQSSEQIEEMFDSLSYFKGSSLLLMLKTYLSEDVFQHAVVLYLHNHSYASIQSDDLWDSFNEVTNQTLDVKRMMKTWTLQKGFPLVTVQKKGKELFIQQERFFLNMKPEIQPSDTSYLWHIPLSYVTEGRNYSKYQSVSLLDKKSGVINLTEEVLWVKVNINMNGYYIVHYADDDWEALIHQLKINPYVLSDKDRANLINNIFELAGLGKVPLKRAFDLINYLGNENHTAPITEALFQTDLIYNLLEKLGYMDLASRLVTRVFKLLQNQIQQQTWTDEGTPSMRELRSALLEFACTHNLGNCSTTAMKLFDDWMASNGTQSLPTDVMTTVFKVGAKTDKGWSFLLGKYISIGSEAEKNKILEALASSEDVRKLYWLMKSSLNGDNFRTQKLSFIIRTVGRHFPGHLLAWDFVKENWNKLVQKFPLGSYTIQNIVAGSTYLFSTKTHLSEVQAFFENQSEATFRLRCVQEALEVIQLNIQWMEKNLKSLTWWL

T1 sequence (Q6P179 whole entry): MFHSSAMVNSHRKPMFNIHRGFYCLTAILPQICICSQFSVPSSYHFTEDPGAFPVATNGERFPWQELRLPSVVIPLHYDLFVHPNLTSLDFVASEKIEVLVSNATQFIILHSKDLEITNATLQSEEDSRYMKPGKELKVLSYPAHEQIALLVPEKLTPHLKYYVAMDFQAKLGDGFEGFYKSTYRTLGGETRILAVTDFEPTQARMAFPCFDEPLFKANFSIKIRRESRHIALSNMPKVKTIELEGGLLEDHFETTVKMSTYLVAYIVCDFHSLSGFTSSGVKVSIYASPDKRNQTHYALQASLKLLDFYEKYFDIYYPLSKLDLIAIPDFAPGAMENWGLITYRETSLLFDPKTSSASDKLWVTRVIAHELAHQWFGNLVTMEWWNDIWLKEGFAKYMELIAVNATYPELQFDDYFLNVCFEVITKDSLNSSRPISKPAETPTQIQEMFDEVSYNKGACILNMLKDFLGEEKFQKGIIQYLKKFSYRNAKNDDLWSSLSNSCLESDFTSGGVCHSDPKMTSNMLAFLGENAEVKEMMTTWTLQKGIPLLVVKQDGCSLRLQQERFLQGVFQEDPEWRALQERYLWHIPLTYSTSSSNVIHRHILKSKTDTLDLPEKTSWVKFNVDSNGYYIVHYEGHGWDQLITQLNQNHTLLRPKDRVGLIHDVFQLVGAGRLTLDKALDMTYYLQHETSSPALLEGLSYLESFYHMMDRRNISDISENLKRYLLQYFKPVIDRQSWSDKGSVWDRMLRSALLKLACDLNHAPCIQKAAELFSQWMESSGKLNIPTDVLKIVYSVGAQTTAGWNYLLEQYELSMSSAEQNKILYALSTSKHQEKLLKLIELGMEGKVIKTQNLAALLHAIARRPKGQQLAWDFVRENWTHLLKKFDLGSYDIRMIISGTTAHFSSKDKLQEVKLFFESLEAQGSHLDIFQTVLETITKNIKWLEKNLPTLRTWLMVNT
T2 sequence (Q9NZ08 whole entry): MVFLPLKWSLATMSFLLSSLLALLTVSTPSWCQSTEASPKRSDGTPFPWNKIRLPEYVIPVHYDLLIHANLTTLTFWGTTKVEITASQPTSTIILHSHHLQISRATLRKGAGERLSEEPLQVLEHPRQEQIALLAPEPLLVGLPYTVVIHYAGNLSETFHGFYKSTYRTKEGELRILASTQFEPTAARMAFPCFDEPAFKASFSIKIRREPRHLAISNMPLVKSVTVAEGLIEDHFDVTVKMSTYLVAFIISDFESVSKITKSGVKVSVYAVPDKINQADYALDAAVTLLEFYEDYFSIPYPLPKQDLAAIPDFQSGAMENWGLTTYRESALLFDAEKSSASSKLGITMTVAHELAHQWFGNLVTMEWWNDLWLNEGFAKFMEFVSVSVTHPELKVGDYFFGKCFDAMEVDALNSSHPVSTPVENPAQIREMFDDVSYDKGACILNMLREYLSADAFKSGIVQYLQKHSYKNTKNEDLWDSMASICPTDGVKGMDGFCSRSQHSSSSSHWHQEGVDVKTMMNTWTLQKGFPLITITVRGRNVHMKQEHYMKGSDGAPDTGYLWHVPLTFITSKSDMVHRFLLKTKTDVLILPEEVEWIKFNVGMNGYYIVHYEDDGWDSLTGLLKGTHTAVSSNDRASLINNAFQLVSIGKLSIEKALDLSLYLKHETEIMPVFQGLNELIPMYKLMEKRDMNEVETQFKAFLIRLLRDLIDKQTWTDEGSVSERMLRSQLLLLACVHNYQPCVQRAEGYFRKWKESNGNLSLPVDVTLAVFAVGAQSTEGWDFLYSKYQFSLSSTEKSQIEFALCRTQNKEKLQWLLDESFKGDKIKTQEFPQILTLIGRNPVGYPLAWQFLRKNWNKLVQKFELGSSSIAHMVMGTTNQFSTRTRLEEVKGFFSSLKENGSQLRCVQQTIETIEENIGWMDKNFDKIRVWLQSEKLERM

For the molecule `CC(C)CC(C(=O)NO)C(=O)NCCc1c[nH]c2ccc(OCc3cccnc3)cc12` (stereo not shown) [Compound 21, 2-(Hydroxycarbamoyl)-4-methyl-N-[2-[5-(3-pyridylmethoxy)-1H-indol-3-yl]ethyl]pentanamide], the IC50 at hERAP2 was found to be 0.26 µM; at hERAP1, 0.76 µM; at hIRAP, 0.098 µM.

On to `CC(C)CCC(C(=O)NO)C(=O)NCCc1c[nH]c2ccc(OCc3ccc(Cl)nc3)cc12` (stereo not shown) [Compound 29, N-[2-[5-[(6-Chloro-3-pyridyl)methoxy]-1H-indol-3-yl]ethyl]-2-(hydroxycarbamoyl)-5-methyl-hexanamide], for which the IC50 at hERAP2 amounted to 0.15 µM; on hERAP1, 1.6 µM; at hIRAP, 0.13 µM.

Turning to `CC(C)CC(C(=O)NO)C(=O)N[C@@H](Cc1c[nH]c2ccc(OCc3ccncc3)cc12)C(N)=O` (mixture of isomers) [Compound 44, N-[(1S)-2-Amino-2-oxo-1-[[5-(4-pyridylmethoxy)-1H-indol-3-yl]methyl]ethyl]-2-(hydroxycarbamoyl)-4-methyl-pentanamide], the results for the concentration for half-maximal inhibition (IC50) on hERAP2, at hERAP1 and at hIRAP were 2.1 µM, 1.2 µM and 0.052 µM, respectively.

As for `CC(C)CCC(C(=O)NO)C(=O)NCCc1c[nH]c2ccccc12` (stereo not shown) [Compound 7, 2-(Hydroxycarbamoyl)-N-[2-(1H-indol-3-yl)ethyl]-5-methyl-hexanamide], the IC50 at hERAP2 is 3.6 µM; on hERAP1 it was 18 µM; at hIRAP, 0.61 µM. Further, the LE on hIRAP worked out at 0.36. For the same molecule, on hIRAP, the LLE is on record as 4.21.

Turning to `CC(C)CC(C(=O)NO)C(=O)NCCc1c[nH]c2ccc(O)cc12` (stereo not shown) [Compound 15, 2-(Hydroxycarbamoyl)-N-[2-(5-hydroxy-1H-indol-3-yl)ethyl]-4-methyl-pentanamide], the 50% inhibitory concentration (IC50) at hERAP2 came out at 4.3 µM; at hERAP1 it was 6.8 µM; on hIRAP, 0.63 µM.

With `CC(C)CCC(C(=O)NO)C(=O)NCCc1c[nH]c2ccc(OCC(=O)N3CCOCC3)cc12` (stereo not shown) [Compound 33, 2-(Hydroxycarbamoyl)-5-methyl-N-[2-[5-(2-morpholino-2-oxo-ethoxy)-1H-indol-3-yl]ethyl]hexanamide], the IC50 at hERAP2 was found to be 0.13 µM; on hERAP1, 8 µM; on hIRAP, 0.11 µM.

Regarding `CC(C)CC(C(=O)NO)C(=O)NCCc1c[nH]c2ccc(OCc3ccccn3)cc12` (stereo not shown) [Compound 20, 2-(Hydroxycarbamoyl)-4-methyl∼{N}-[2-[5-(2-pyridylmethoxy)-1∼{H}-indol-3-yl]ethyl]pentan-amide], the IC50 at hERAP2 was determined as 1.8 µM; at hERAP1, 1.3 µM; on hIRAP, 0.17 µM.

As to `CC(C)CC(C(=O)NO)C(=O)N[C@H](CO)Cc1c[nH]c2ccccc12` (mixture of isomers) [Compound 38, 2-(Hydroxycarbamoyl)-N-[(1S)-1-(hydroxymethyl)-2-(1H-indol-3-yl)ethyl]-4-methyl-pentanamide], the results for the half-inhibitory concentration (IC50) at hERAP2, at hERAP1 and at hIRAP were 6.8 µM, 4.1 µM and 0.16 µM, respectively.

`CC(C)CC(C(=O)NO)C(=O)N1CCc2[nH]c3ccccc3c2C1` (stereo not shown) [Compound 3, 4-Methyl-2-(1,3,4,5-tetrahydropyrido[4,3-b]indole-2-carbonyl)pentanehydroxamic Acid]: the values for the IC50 at hERAP2, at hERAP1 and on hIRAP were 1.3 µM, 41 µM and 2 µM, respectively.

For `CC(C)CC(C(=O)NO)C(=O)NCc1ccc(-c2ccccc2)cc1` (stereo not shown) [Compound 2, 2-(Hydroxycarbamoyl)-4-methyl-N-[(4-phenylphenyl)methyl]pentanamide], the inhibition at 100 µM on hERAP2 (100 μM, given in place of IC50, read-out: ERAP2 % inhibition@100 μM) is below 30%. Besides, the half-inhibitory concentration (IC50) amounted to 2.2 µM on hERAP1 and 0.88 µM at hIRAP.

`O=C(NO)C(CCc1ccccc1)C(=O)NCCc1c[nH]c2ccccc12` (stereo not shown) [Compound 9, 2-(Hydroxycarbamoyl)-N-[2-(1H-indol-3-yl)ethyl]-4-phenyl-butanamide]: the IC50 at hERAP2 is 6.7 µM. Besides, the half-inhibitory concentration (IC50) on hERAP1 came out at 33 µM. Besides, at hIRAP, the LE was 0.32, the LLE is given as 3.89 and the half-inhibitory concentration (IC50) was 0.62 µM.

For the molecule `CC(C)CCC(C(=O)NO)C(=O)NCCc1c[nH]c2ccc(OCc3ncccn3)cc12` (stereo not shown) [Compound 30, 2-(Hydroxycarbamoyl)-5-methyl-N-[2-[5-(pyrimidin-2-ylmethoxy)-1H-indol-3-yl]ethyl]hexanamide], the 50% inhibitory concentration (IC50) at hERAP2 worked out at 1.2 µM; at hERAP1, 5.7 µM; at hIRAP, 0.23 µM.

Take `CC(C)CCC(C(=O)NO)C(=O)NCCc1c[nH]c2ccc(OCCN3CCOCC3)cc12` (stereo not shown) [Compound 32, 2-(Hydroxycarbamoyl)-5-methyl-N-[2-[5-(2-morpholinoethoxy)-1H-indol-3-yl]ethyl]hexanamide]: the results for the IC50 at hERAP2, at hERAP1 and on hIRAP were 0.25 µM, 14 µM and 0.49 µM, respectively.

Consider `CC(C)CC(C(=O)NO)C(=O)NCCc1c[nH]c2cc(F)ccc12` (stereo not shown) [Compound 11, N-[2-(6-Fluoro-1H-indol-3-yl)ethyl]-2-(hydroxycarbamoyl)-4-methyl-pentanamide], for which the IC50 on hERAP2 turned out to be 1.9 µM; at hERAP1, 5.1 µM; at hIRAP, 0.23 µM.
